# Experiments:
# Assay type in all cases: cell-based, Human
# [1] = system: A498; experiment: Propidium iodide (PI) apoptosis assay, LD50 after 72 h
# Method: (§1) Human kidney carcinoma and melanoma cell lines A498, A704, CAKI1, CAKI2, WM115, WM266-4 and C8161 were provided by M. Herlyn (Wistar Institute, Philadephia) and R. Gillies (Arizona Cancer Center, Phoenix) or purchased from the American Tissue Culture Collection. CAKI1, CAKI2 and C8161 cells were cultured in Dulbecco's modified Eagle's medium (DMEM; Gibco Life Technologies Inc.), supplemented with 10 % fetal calf serum (FCS), 2 mM glutamine, and 1 % nonessential amino acids. A498, A704 and WM115 cells were cultured in Minimum Essential Medium (MEM; Gibco Life Technologies Inc.) supplemented with 10 % FCS, 2 mM glutamine, and 1 % (v/v) nonessential amino acids. WM266-4 cells were cultured in RPMI medium (Gibco Life Technologies Inc.), supplemented with 10 % FCS and 2 mM glutamine.
# (§2) The cells were treated with Sunitinb concentrations between 2.5 µM and 20 µM for 72 h and apoptosis was determined according to Nicoletti's procedure (Riccardi and Nicoletti 2006). BD CellQuest Pro software (Becton Dickinson) for subG1 peak detection was used to determine the extent of the apoptotic cell formation. Statistical evaluation of the half maximal lethal dose-(LD50) values was assessed by using SigmaPlot (Systat Software, Inc., version 10).
# [2] = system: CAKI1; experiment: as above
# Method: as §1, §2
# [3] = system: C8161^NDes; experiment: Apoptosis LD50 in Sorafenib desensitized cell line
# Method: as §2
# (§3) To determine the drug specificity of the selection process, we also established Sorafenib selected polyclonal cell populations using the same conditions.
# [4] = system: WM115^NDes; experiment: Apoptosis LD50 in Sorafenib desensitized cell line
# Method: as §2, §3
# [5] = system: WM266-4^NDes; experiment: Apoptosis LD50 in Sorafenib desensitized cell line
# Method: as §2, §3
# [6] = system: A704; experiment: Propidium iodide (PI) apoptosis assay, LD50 after 72 h; conditions: A704 parental, Sunitinib 2.5-20 µM, apoptosis (subG1)
# Method: as §1, §2
# [7] = system: C8161; experiment: as above; conditions: C8161 parental; Sunitinib 72 h; apoptosis (subG1)
# Method: as §1, §2
# [8] = system: WM115; experiment: as above; conditions: WM115 parental; Sunitinib 72 h; apoptosis (subG1)
# Method: as §1, §2
# [9] = system: WM266-4; experiment: as above; conditions: WM266-4 parental; Sunitinib 72 h; apoptosis (subG1)
# Method: as §1, §2
# [10] = system: A498^SDes; experiment: Apoptosis LD50 in Sunitinib desensitized cell line; conditions: A498^SDes compared to parental cell line; 72 h
# Method: as §2
# [11] = system: A704^SDes; experiment: Apoptosis LD50 in Sunitinib desensitized cell line; conditions: A704^SDes compared to parental cell line; 72 h
# Method: as §2
# [12] = system: C8161^Sdes; experiment: Apoptosis LD50 in Sunitinib desensitized cell line; conditions: C8161^Sdes compared to parental cell line; 72 h
# Method: as §2
# [13] = system: WM115^SDes; experiment: Apoptosis LD50 in Sunitinib desensitized cell line; conditions: WM115^SDes compared to parental cell line; 72 h
# Method: as §2
# [14] = system: WM266-4^SDes; experiment: Apoptosis LD50 in Sunitinib desensitized cell line; conditions: WM266-4^SDes compared to parental cell line; 72 h
# Method: as §2
# [15] = system: A704^NDes; experiment: Apoptosis LD50 in Sorafenib selected cell line
# Method: as §2, §3
# [16] = system: A498^SDes; experiment: Increased Sunitinib-induced apoptosis (AdA) after siRNA knock-down, PI assay; conditions: Sunitinib 72 h
# Method: (§4) The cells were seeded with equal numbers in 6-Well plates and transfected with 40 pmol siRNA (PRKX (AMBION, cat. no.: s224410, s224411, s11195), TTBK2 (AMBION, cat. no.: s44812, s44813, s44814), RSK4/RPS6KA6 (AMBION, cat. no.: s223751, s223752, s223753) and 5 µl lipofectamine RNAiMAX (Invitrogen) following the manufacturers' protocols. To determine the knock-down efficiency, semi-quantitative RT-PCR was performed (Primer list, see table 1). Table 1: Primer used for RT-PCR
# (§5) Apoptotic cell formation was monitored according to Nicoletti's procedure.
# (§6) To analyze the increased Sunitinib-induced apoptosis (AdA) upon gene-expression reduction compared to the control siRNA, apoptosis was determined using PI-Assays after 72 h. Gene knock-downs ranged between 50% and 90%, as estimated by scanning densitometry (Fig. 4A). […] Like for PRKX and TTBK2, the […] in gene-expression strongly correlated with the degree of desensitization.
# [17] = system: A498; experiment: as above; conditions: Sunitinib 72 h
# Method: as §4, §5, §6
# [18] = system: C8161^NDes; experiment: as above; conditions: C8161NDes, Sunitinib 72 h
# Method: as §4, §5, §6
# [19] = system: C8161^Sdes; experiment: as above; conditions: Sunitinib 72 h
# Method: as §4, §5, §6
# [20] = system: C8161; experiment: as above; conditions: Sunitinib 72 h
# Method: as §4, §5, §6
# [21] = system: WM115^NDes; experiment: as above; conditions: Sunitinib 72 h
# Method: as §4, §5, §6
# [22] = system: WM115; experiment: as above; conditions: Sunitinib 72 h
# Method: as §4, §5, §6
# [23] = system: WM266-4^NDes; experiment: as above; conditions: Sunitinib 72 h
# Method: as §4, §5, §6
# [24] = system: WM266-4^SDes; experiment: as above; conditions: Sunitinib 72 h
# Method: as §4, §5, §6
# [25] = system: WM266-4; experiment: as above; conditions: Sunitinib 72 h
# Method: as §4, §5, §6
# [26] = system: WM115^SDes; experiment: as above; conditions: RSK4 reduction by siRNA vs control siRNA, Sunitinib 72 h
# Method: as §4, §5
# [27] = system: A498^SDes cells; experiment: Boyden Chamber migration assay after siRNA knock-down and Sunitinib treatment; conditions: Sunitinib 12 h
# Method: as §4, §5
# (§7) Then, cells were seeded onto a membrane with 8 µm pores of a modified Boyden chamber (Schubert and Weiss) containing 500 µL serum-free medium. 10 % FCS served as chemo-attractant.
# [28] = system: parental A498 cells; experiment: as above; conditions: Sunitinib 12 h
# Method: as §4, §5, §7
# [29] = PRKX reduction by siRNA vs control siRNA
# [30] = RSK4 reduction by siRNA vs control siRNA
# [31] = TTBK2 reduction by siRNA vs control siRNA
smiles,measurement,setting,value
CNC(=O)c1cc(Oc2ccc(NC(=O)Nc3ccc(Cl)c(C(F)(F)F)c3)cc2)ccn1 [Sorafenib],Sorafenib sensitivity (apoptosis),[1]; parental A498,insensitivity
same,Sorafenib sensitivity (apoptosis),[2]; parental CAKI1,insensitivity
same,decreased sensitivities against Sorafenib compared to the parental cell lines,"[3]; C8161^NDes, Sorafenib LD50",249%
same,decreased sensitivities against Sorafenib compared to the parental cell lines,"[4]; WM115^NDes, Sorafenib LD50",197%
same,decreased sensitivities against Sorafenib compared to the parental cell lines,"[5]; WM266-4^NDes, Sorafenib LD50",130%
CCN(CC)CCNC(=O)c1c(C)[nH]c(/C=C2\C(=O)Nc3ccc(F)cc32)c1C [Sunitinib],LD50-values,"[1]; A498 parental, Sunitinib 72 h, apoptosis (subG1)",12.4 ± 0.4 µM
same,LD50-values,[6],2.2 ± 0.4 µM
same,LD50-values,[7],15.5 ± 0.7 µM
same,LD50-values,"[2]; CAKI1 parental, Sunitinib 72 h, apoptosis (subG1)",16.6 ± 1.5 µM
same,LD50-values,[8],3.6 ± 0.9 µM
same,LD50-values,[9],6.4 ± 1.3 µM
same,increase of the LD50-values,[10],122%
same,increase of the LD50-values,[11],344%
same,increase of the LD50-values,[12],112%
same,increase of the LD50-values,[13],301%
same,increase of the LD50-values,[14],174%
same,Sunitinib LD50-value,[15]; A704^NDes (Sorafenib selected),9.0 ± 2.5 µM
same,increased Sunitinib LD50-value,[15]; A704^NDes in comparison to the parental cell line,419%
same,decrease in Sunitinib sensitivity,[3]; C8161^Ndes compared to parental,77%
same,increase of the Sunitinib LD50-values,[4]; WM115^Ndes compared to parental,249%
same,increase of the Sunitinib LD50-values,[5]; WM266-4^Ndes compared to parental,168%
same,increased Sunitinib-induced apoptosis (AdA),"[16]; PRKX reduction by siRNA vs control siRNA, A498SDes",14.7 ± 4.4%
same,increased Sunitinib-induced apoptosis (AdA),"[16]; RSK4 reduction by siRNA vs control siRNA, A498^SDes",14.7 ± 4.4%
same,increased Sunitinib-induced apoptosis (AdA),"[16]; TTBK2 reduction by siRNA vs control siRNA, A498^SDes",13.6 ± 0.4%
same,increased Sunitinib-induced apoptosis (AdA),[17]; [29],6.5 ± 3.2%
same,increased Sunitinib-induced apoptosis (AdA),[17]; [30],6.5 ± 3.2%
same,increased Sunitinib-induced apoptosis (AdA),[17]; [31],7.1 ± 3.1%
same,increased Sunitinib-induced apoptosis (AdA),[18]; [29],18.1 ± 8.8%
same,increased Sunitinib-induced apoptosis (AdA),[18]; [30],6.0 ± 2.1%
same,increased Sunitinib-induced apoptosis (AdA),[18]; [31],-2.2 ± 6.8%
same,increased Sunitinib-induced apoptosis (AdA),"[19]; PRKX reduction by siRNA vs control siRNA, C8161SDes",35.8 ± 9.9%
same,increased Sunitinib-induced apoptosis (AdA),"[19]; RSK4 reduction by siRNA vs control siRNA, C8161SDes",11.9 ± 4.8%
same,increased Sunitinib-induced apoptosis (AdA),"[19]; TTBK2 reduction by siRNA vs control siRNA, C8161^SDes",20.3 ± 8.1%
same,increased Sunitinib-induced apoptosis (AdA),[20]; [29],19.4 ± 2.4%
same,increased Sunitinib-induced apoptosis (AdA),[20]; [30],12.5 ± 3.6%
same,increased Sunitinib-induced apoptosis (AdA),[20]; [31],7.3 ± 4.8%
same,increased Sunitinib-induced apoptosis (AdA),"[21]; PRKX reduction by siRNA vs control siRNA, WM115NDes",3.9 ± 4.8%
same,increased Sunitinib-induced apoptosis (AdA),"[21]; RSK4 reduction by siRNA vs control siRNA, WM115^NDes",5.6 ± 3.8%
same,increased Sunitinib-induced apoptosis (AdA),"[21]; TTBK2 reduction by siRNA vs control siRNA, WM115NDes",11.7 ± 4.4%
same,increased Sunitinib-induced apoptosis (AdA),[22]; [29],3.2 ± 0.4%
same,increased Sunitinib-induced apoptosis (AdA),[22]; [30],4.8 ± 2.3%
same,increased Sunitinib-induced apoptosis (AdA),[22]; [31],4.8 ± 1.5%
same,increased Sunitinib-induced apoptosis (AdA),[23]; [29],23.0 ± 5.4%
same,increased Sunitinib-induced apoptosis (AdA),[23]; [30],5.3 ± 5.2%
same,increased Sunitinib-induced apoptosis (AdA),[23]; [31],12.7 ± 2.5%
same,increased Sunitinib-induced apoptosis (AdA),"[24]; PRKX reduction by siRNA vs control siRNA, WM266-4SDes",34.1 ± 4.9%
same,increased Sunitinib-induced apoptosis (AdA),"[24]; RSK4 reduction by siRNA vs control siRNA, WM266-4^SDes",20.2 ± 5.7%
same,increased Sunitinib-induced apoptosis (AdA),"[24]; TTBK2 reduction by siRNA vs control siRNA, WM266-4SDes",16.8 ± 7.7%
same,increased Sunitinib-induced apoptosis (AdA),[25]; [29],22.4 ± 6.7%
same,increased Sunitinib-induced apoptosis (AdA),[25]; [30],7.1 ± 2.0%
same,increased Sunitinib-induced apoptosis (AdA),[25]; [31],5.1 ± 2.0%
same,increased Sunitinib-induced apoptosis (AdA),[26],14.1 ± 3.2%
same,increased Sunitinib inhibitory effect (migration),[27]; PRKX reduction by siRNA,76.4 ± 4.1%
same,increased Sunitinib anti-migratory effect,[27]; RSK4 reduction by siRNA,8.6 ± 3.1%
same,inhibition of migration compared to the scrambled siRNA control,[28]; PRKX reduction by siRNA,64.4 ± 11.1%
same,increase in Sunitinib inhibition of migration,[28]; RSK4 reduction by siRNA,27.3 ± 2.7%
same,increase in Sunitinib inhibition of migration,[28]; TTBK2 reduction by siRNA,37.1 ± 1.0%
